{"source": "patent US20070020140A1", "about": "“Decontamination of biological microbes using metal cations suspended in ethanol” (priority 2005, published 2007)", "key": {"[1]": {"tested_on": "Bacillus atrophaeus subspecies globigii spores", "assay": "Assay to quantify spore kills, dry-prepared Bg spores (section 2)", "assay_type": "cell-based", "details": "0.5 M, 15 minutes at 25° C., FIG. 4"}, "Bacillus cereus spores": {"tested_on": "Bacillus cereus spores", "assay": "Assay to quantify spore kills, wet-prepared Bc spores (section 2)", "assay_type": "cell-based, B. cereus RSVF1, ATCC 4342", "details": "FIG. 5"}, "[2]": {"tested_on": "B. atrophaeus subspecies globigii spores", "assay_type": "cell-based, Bacillus atrophaeus subspecies globigii", "details": "0.5 M in water", "experimental": "Dry-prepared spores of non-pathogenic B. atrophaeus subspecies globigii (B. globigii or Bg) were prepared at the Army's Dugway Proving Ground to mimic a bio-weapon, and they are used for bio-weapons studies, including the following experiments. The assay for decontamination experiments was performed with 3-4 replicates and many experiments were reproduced numerous times. The assay included the steps of (1) suspending Bg spores in the appropriate solvent (water or ethanol) at a concentration of 2 mg spores/ml (approximately 2×10^8 spores/ml) with starting volume of over 1 ml of spores at 2 mg/ml; (2) removing 3 or 4 spore aliquots of 50 ul per aliquot with each aliquot serially diluted in 1x PBS and plated on Luria-Bertani (LB) or Tryptic Soy (TSA) agar plates (this is a control step that gave the spore titer or colony-forming units (CFUs) at Time=0 minutes (T0)); (3) placing the appropriate decontamination solution (2x concentration) aliquoted into each of 3 or 4 eppendorf tubes with 200 ul per tube and then 200 ul of spores were added and mixed to give a final concentration of 1x decontamination solution and 1 mg spores/ml; (4) the spores in decontamination solution were then mixed and incubated for specific time periods and temperatures. A typical incubation was in a room temperature (25° C.) water bath for 30 (or 60) minutes (no agitation was performed during the incubation period in order to mimic real world situations); (5) aliquots of spores from the 3 or 4 replicates were removed after 30 (or 60) minutes with the aliquots serially diluted in 1x PBS and plated on LB or TSA agar plates which gave a CFU at Time=30 minutes (T30) (the titer of live spores after the decontamination test); (6) after removing the aliquots at the 30-minute time point, some test samples were then immediately incubated in a 70° C. water bath for another 30 minutes, the samples were then serially diluted and plated on to LB agar plates to determine the titer after the 70° C. incubation."}, "[3]": {"details": "0.5 M in 50%, 75% and 90% ethanol, 15 minutes at 25° C."}, "[4]": {"details": "60 minutes at 25° C., ten out of the thirteen experiments"}, "[5]": {"details": "additional 30 minutes at 70° C., pH-neutralized to pH 7-8, all 11 experiments"}}}
{"smiles": "O.O.[Ca+2].[Cl-].[Cl-]", "note": "[Ca^+2, CaCl2-2H2O]", "values": [{"measurement": "effect on Bg spores", "setting": "[1]; regardless of the solvent (water, 25-90% ethanol)", "result": "no affect"}, {"measurement": "effect on Bc spores", "setting": "Bacillus cereus spores; 0.5 M in water, 25%, 50%, 75% or 90% ethanol, 15 minutes at 25° C.", "result": "no affect"}]}
{"smiles": "[Cl-].[Cl-].[Zn+2]", "note": "[Zn^+2, ZnCl2]", "values": [{"measurement": "CFU reduction", "setting": "[1]; in 50% ethanol", "result": "greater than two logs"}, {"measurement": "activity against Bc spores", "setting": "Bacillus cereus spores; 0.5 M in 50% and 75% ethanol, 15 minutes at 25° C.", "result": "slight activity"}]}
{"smiles": "O.O.O.O.O.O.[Cl-].[Cl-].[Cl-].[Fe+3]", "note": "[Fe^+3, FeCl3·6H2O]", "values": [{"measurement": "CFU reduction", "setting": "[1]; in water and at any ethanol concentration", "result": "greater than three logs"}, {"measurement": "CFU reduction (logs)", "setting": "Bacillus cereus spores; [3]", "result": "greater than three logs"}, {"measurement": "CFU reduction (percent)", "setting": "Bacillus cereus spores; [3]", "result": "> 99.9", "unit": "%"}, {"measurement": "CFU reduced relative to the control", "setting": "Bacillus cereus spores; 0.5 M in water, within 15 minutes", "result": "less than half a log"}]}
{"smiles": "[Cl][Cu][Cl]", "note": "[Cu^+2, copper chloride]", "values": [{"measurement": "activity against Bg spores", "setting": "[1]; in 50%, 75% and 90% ethanol", "result": "strongest activity"}, {"measurement": "log spore kill", "setting": "[2]; [4]", "result": "> 1", "unit": "log"}, {"measurement": "spore kills", "setting": "[2]; [4]", "result": "greater than 92%"}, {"measurement": "kill of spores", "setting": "[2]; [5]", "result": 100, "unit": "%"}, {"measurement": "logs of kill", "setting": "[2]; [5]", "result": "> 7", "unit": "logs"}, {"measurement": "activity against Bc spores", "setting": "Bacillus cereus spores; [3]", "result": "strong activity"}]}
